Inhibition of growth data for three compounds are collected here from ChEMBL document CHEMBL1140040, “Synthesis and cytotoxic activity of some novel polycyclic gamma-butyrolactones” (Bioorg Med Chem Lett, 2008).

Assay type in all cases: functional
One experiment deals with DU-145. Put plainly: Cytotoxicity against human DU145 cells assessed as age growth inhibition at 10 uM after 48 hrs by sulforhodamine B assay. The note with it: DU-145, 48 h, read-out: GI.
The subject of another experiment is HEp-2. Description: Cytotoxicity against human HEP2 cells assessed as age growth inhibition at 10 uM after 48 hrs by sulforhodamine B assay. The note with it: HEp-2, 48 h, read-out: GI. On the technique in general: In SRB staining, fixed cells bind dye roughly in proportion to their protein.
The next experiment has as its system COLO 205. Description: Cytotoxicity against human COLO205 cells assessed as age growth inhibition at 10 uM after 48 hrs by sulforhodamine B assay. The note with it: COLO 205, 48 h, read-out: GI.
The test system of the next experiment is HCT-15. Put plainly: Cytotoxicity against human HCT15 cells assessed as age growth inhibition at 10 uM after 48 hrs by sulforhodamine B assay. The note with it: HCT-15, 48 h, read-out: GI.
In another experiment the test system is IGROV-1. Description: Cytotoxicity against human IGROV1 cells assessed as age growth inhibition at 10 uM after 48 hrs by sulforhodamine B assay. The note with it: IGROV-1, 48 h, read-out: GI.
For a further experiment, the system named is SF-295. Put plainly: Cytotoxicity against human SF295 cells assessed as age growth inhibition at 10 uM after 48 hrs by sulforhodamine B assay. The note with it: SF-295, 48 h, read-out: GI.
The subject of a further experiment is HOP-62. Description: Cytotoxicity against human HOP62 cells assessed as age growth inhibition at 10 uM after 48 hrs by sulforhodamine B assay. The note with it: HOP-62, 48 h, read-out: GI.
The next experiment relates to A549. Description: Cytotoxicity against human A549 cells assessed as age growth inhibition at 10 uM after 48 hrs by sulforhodamine B assay. The note with it: A549, 48 h, read-out: GI.

SMILES strings stand for the structures.

`CC(=O)O[C@H]1C(=O)[C@@]2(C)[C@H]([C@H](OC(=O)c3ccccc3)[C@]3(O)C[C@H](OC(=O)[C@H](O)[C@@H](NC(=O)c4ccccc4)c4ccccc4)C(C)=C1C3(C)C)[C@]1(OC(C)=O)CO[C@@H]1C[C@@H]2O` [PACLITAXEL]: the inhibition of growth at 10 µM was found to be 52% in the experiment on DU-145; 29% in the experiment on HEp-2; 9% with COLO 205; 40% in the experiment with HCT-15; 15% in the experiment on IGROV-1; 22% in the experiment with SF-295. Also, the inhibition of growth at 10 µM in the experiment on HOP-62 stood at 26%; in the experiment on A549, 40%.
In the case of `COc1cccc2c1C(=O)c1c(O)c3c(c(O)c1C2=O)C[C@@](O)(C(=O)CO)C[C@@H]3O[C@H]1C[C@H](N)[C@H](O)[C@H](C)O1` [DOXORUBICIN], the inhibition of growth at 10 µM came out at 64% in the experiment with DU-145; 54% in the experiment with HCT-15; 54% in the experiment on SF-295; 69% in the experiment on HOP-62; 47% in the experiment on A549.
Turning to `CO[C@@]12[C@H](COC(N)=O)C3=C(C(=O)C(C)=C(N)C3=O)N1C[C@@H]1N[C@@H]12` [MITOMYCIN], the figures for the inhibition of growth at 10 µM in the experiment with DU-145 and in the experiment on A549 were 63% and 55%, respectively.
